Measured values reported in paper PMC6114901, “An automated screening method for detecting compounds with goitrogenic activity using transgenic zebrafish embryos” (PLoS ONE, 2018).
“Also recorded” adds a separate entry of the source.

Test system: thyroglobulin (tg:mCherry reporter gene)
Assay: animal or person
Procedure: In order to avoid interference of test chemicals with early thyroid gland development, zebrafish embryos were cultured in exposure medium until 48 hours post fertilization (hpf). Subsequently, they were exposed to seven known thyroid endocrine disrupters for 3 days (48 to 120 hpf). The non-goitrogenic compound 3,4-dichloroaniline, that is used as reference compound in the zebrafish acute embryo toxicity test was used as negative control. […] No solvents were used. […] Five concentrations and one control were tested per compound and replicate. In the second replicate the range of concentration was adjusted to improve fitting of concentration-response curves. […] Given the lack of appropriate spectral properties stability of exposure concentrations was not analysed for potassium perchlorate. Embryos were kept in the incubator at 26°C and a 14:10 hours light:dark cycle. The exposure was conducted in crystallisation dishes covered with watchmaker glasses with 30 embryos in 30 ml exposure medium (for exposure medium refer to [26]).
Embryos were positioned ventrally toward the microscope objective. Per embryo a bright field image, an autofocus fluorescence image and a Z-stack of 9 images were obtained. The Z-stack was required in case of autofocus failure and manual selection of the focal plane. Fluorescence images were obtained with 400 ms of fluorescent light exposure at maximal light intensity and a gain of 1. […] However, care was taken, that at least 10 images per concentration and replicates were assessed. To avoid a time bias during the analysis the sequence of wells for analysis was arranged in order to obtain a uniform distribution over the entire period of analysis.
The images were analysed using a KNIME workflow (Version 3.3.3., [29]) with the extension “KNIME image processing”. In brief, images were loaded into the workflow and the background was removed automatically using the “rolling ball” procedure of the image J plugin (rolling ball size set to 50 pixels). Subsequently the area containing the thyroid gland was manually selected by drawing a rectangle around the appropriate region using the interactive annotation node. […] If possible the autofocus images were used. In case that the thyroid gland was out of focus due to the presence of autofluorescing pigment cells, an appropriate image from the Z-stack was selected. All subsequent steps were conducted without any user interaction. […] Finally the sum of pixel (reflecting area of the thyroid gland and intensity of fluorescence) was calculated for the labeled area and used as a proxy of fluorescence intensity (see Fig 1 for an overview of the workflow). For each replicate the sum was of pixels was normalized by setting controls to the value of one. For data of individual embryos see S4 Table. The KNIME workflow used for image analysis is provided as supplement file (S1 Workflow).
To characterize the potency of the investigated goitrogenic compounds, we calculated EC50 values of tg:mcherry fluorescence using the pixel sum obtained from image analysis. For each replicate the fluorescence intensity was normalized by dividing the mean fluorescence intensity of each concentration with the mean control fluorescence intensity. Concentration-response curves of tgmcherry fluorescence were fitted to the data using the Hill-slope equation (Eq 1) and used to estimate EC50 values.
The parameter Min was set to 1 and the slope (p) and the maximum fluorescence (Max) were estimated.

| SMILES | Normalised mean pixel sum (0.13 µM, replicate 2) | Normalised mean pixel sum (0.493827 µM, replicate 1) | Normalised mean pixel sum (1.91 µM, replicate 2) | Normalised mean pixel sum (7.40741 µM, replicate 1) | Normalised mean pixel sum (29 µM, replicate 2) | Normalised mean pixel sum (111.111 µM, replicate 1) | Normalised mean pixel sum (430 µM, replicate 2) | Normalised mean pixel sum (1666.67 µM, replicate 1) | Normalised mean pixel sum (6455 µM, replicate 2) | Slope (Hill slope of tg:mCherry concentration-response curve) | BMD 20 (concentration at which a 20% increase of tg:mCherry fluorescence was observed) [µM] | EC50 (read-out: EC50 (tg:mCherry induction), exposure 48–120 hpf, Hill-slope model) [µM] | TDI (thyroid disruption index = LC50/EC50 tg:mCherry induction) | effect on tg:mCherry fluorescence (zebrafish, in vivo) |
| --- | --- | --- | --- | --- | --- | --- | --- | --- | --- | --- | --- | --- | --- | --- |
| [K+].[O-][Cl+3]([O-])([O-])[O-] [Potassium perchlorate, potassium perchlorate] | 0.90 | 1.06 | 1.30 | 0.86 | 1.75 | 1.38 | 1.97 | 2.55 | 2.16 | 0.69 | 37.6 | 137 | 241 |  |
| Nc1ccc(Cl)c(Cl)c1 [3,4-DCA, 3,4-dichloroaniline] |  |  |  |  |  |  |  |  |  |  |  |  |  | decreased the fluorescence signal; also recorded: did not induce tg:mCherry fluorescence but led to a concentration dependent reduction in fluorescence |
